Test [1] addresses T1, Progesterone receptor (Oryctolagus cuniculus) (UniProt P06186).
T1 sequence (whole entry): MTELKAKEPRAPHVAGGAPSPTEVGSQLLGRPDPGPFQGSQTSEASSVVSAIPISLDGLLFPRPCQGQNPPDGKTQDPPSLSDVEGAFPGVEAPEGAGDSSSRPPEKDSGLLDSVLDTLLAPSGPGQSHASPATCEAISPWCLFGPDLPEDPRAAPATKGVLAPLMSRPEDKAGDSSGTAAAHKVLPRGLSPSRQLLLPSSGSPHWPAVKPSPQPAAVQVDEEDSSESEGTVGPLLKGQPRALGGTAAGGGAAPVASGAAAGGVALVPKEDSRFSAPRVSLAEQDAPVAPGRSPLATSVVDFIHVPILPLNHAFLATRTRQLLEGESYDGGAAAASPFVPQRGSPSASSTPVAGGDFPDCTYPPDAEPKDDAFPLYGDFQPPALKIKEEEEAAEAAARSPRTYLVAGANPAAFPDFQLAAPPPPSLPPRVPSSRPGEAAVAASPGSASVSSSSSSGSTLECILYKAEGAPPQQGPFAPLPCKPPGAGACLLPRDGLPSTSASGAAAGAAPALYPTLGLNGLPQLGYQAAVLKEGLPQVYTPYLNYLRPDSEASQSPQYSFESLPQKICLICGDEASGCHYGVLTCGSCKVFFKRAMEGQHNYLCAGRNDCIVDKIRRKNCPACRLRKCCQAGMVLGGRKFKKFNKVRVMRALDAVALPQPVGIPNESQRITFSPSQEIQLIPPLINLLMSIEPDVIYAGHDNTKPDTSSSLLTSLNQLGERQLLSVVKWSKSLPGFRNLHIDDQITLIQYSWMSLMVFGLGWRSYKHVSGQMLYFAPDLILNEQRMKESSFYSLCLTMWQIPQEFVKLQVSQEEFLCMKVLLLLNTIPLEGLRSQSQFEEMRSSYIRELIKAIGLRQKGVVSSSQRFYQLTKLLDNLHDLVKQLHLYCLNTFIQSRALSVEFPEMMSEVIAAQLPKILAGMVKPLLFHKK
The test is described as follows: Percent inhibition of [3H]- progesterone binding to rabbit uterine progesterone receptor, at 10e-5 M compound concentration. As to conditions: at 10 µM.

Test [2] concerns the target T1, Progesterone receptor (Oryctolagus cuniculus). The test is described as follows: Percent inhibition of [3H]- progesterone binding to rabbit uterine progesterone receptor, at 10e-6 M compound concentration. As to conditions: at 1 µM.
Test [3] shares this target. The test is described as follows: Percent inhibition of [3H]- progesterone binding to rabbit uterine progesterone receptor, at 10e-8 M compound concentration. As to conditions: at 0.01 µM.
Test [4] shares this target. The test is described as follows: Percent inhibition of [3H]- progesterone binding to rabbit uterine progesterone receptor, at 10e-9 M compound concentration. As to conditions: at 0.001 µM.
For test [5] the target is unchanged. The test is described as follows: Percent inhibition of [3H]- progesterone binding to rabbit uterine progesterone receptor, at 10e-7 M compound concentration. As to conditions: at 0.1 µM.
The test system of test [6] is Cricetinae gen. sp. As to the kind of experiment: Activity against pregnancy-interceptive activity in Syrian golden hamsters, when administered, at a dose of 12.08 mmol/kg. It is filed as functional.
In test [7] the test system is Progesterone receptor (Mesocricetus auratus). The test is described as follows: Percent inhibition of [3H]- progesterone binding to Syrian golden hamster uterine cytosol progesterone receptor, at 10e-5 M compound concentration. As to conditions: at 10 µM.
Test [8] has the same test system. The test is described as follows: Percent inhibition of [3H]- progesterone binding to Syrian golden hamster uterine cytosol progesterone receptor, at 10e-7 M compound concentration. As to conditions: at 0.1 µM.
For test [9] the test system is unchanged. As to the kind of experiment: Percent inhibition of [3H]- progesterone binding to Syrian golden hamster uterine cytosol progesterone receptor, at 10e-8 M compound concentration. As to conditions: at 0.01 µM.
Test [10] shares this test system. The test is described as follows: Percent inhibition of [3H]- progesterone binding to Syrian golden hamster uterine cytosol progesterone receptor, at 10e-9 M compound concentration. As to conditions: at 0.001 µM.
The test system is the same in test [11]. As to the kind of experiment: Percent inhibition of [3H]- progesterone binding to Syrian golden hamster uterine cytosol progesterone receptor, at 10e-6 M compound concentration. As to conditions: at 1 µM.
Test [12] deals with Cricetinae gen. sp. The test is described as follows: Activity against pregnancy-interceptive activity in Syrian golden hamsters, when administered, at a dose of 5.54 mmol/kg. It is filed as functional.
Test [13] relates to Cricetinae gen. sp. The test is described as follows: Activity against pregnancy-interceptive activity in Syrian golden hamsters, when administered, at a dose of 6.66 mmol/kg. It counts as functional.
The test system of test [14] is Cricetinae gen. sp. The test is described as follows: Activity against pregnancy-interceptive activity in Syrian golden hamsters, when administered, at a dose of 6.98 mmol/kg. It is filed as functional.
Test [15] deals with Cricetinae gen. sp. As to the kind of experiment: Activity against pregnancy-interceptive activity in Syrian golden hamsters, when administered, at a dose of 8.35 mmol/kg. It is filed as functional, Cricetulus griseus.
Test [16] has as its system Cricetinae gen. sp. As to the kind of experiment: Activity against pregnancy-interceptive activity in Syrian golden hamsters, when administered, at a dose of 6.70 mmol/kg. It counts as functional.
Test [17] has as its system Cricetinae gen. sp. The test is described as follows: Activity against pregnancy-interceptive activity in Syrian golden hamsters, when administered, at a dose of 6.36 mmol/kg. It is filed as functional, Cricetulus griseus.
The subject of test [18] is Cricetinae gen. sp. The test is described as follows: Activity against pregnancy-interceptive activity in Syrian golden hamsters, when administered, at a dose of 5.64 mmol/kg. It is filed as functional.
Test [19] relates to Cricetinae gen. sp. As to the kind of experiment: Activity against pregnancy-interceptive activity in Syrian golden hamsters, when administered, at a dose of 4.95 mmol/kg. It counts as functional.
The subject of test [20] is Cricetinae gen. sp. As to the kind of experiment: Activity against pregnancy-interceptive activity in Syrian golden hamsters, when administered, at a dose of 8.82 mmol/kg. It is filed as functional.
The test system of test [21] is Cricetinae gen. sp. As to the kind of experiment: Activity against pregnancy-interceptive activity in Syrian golden hamsters, when administered, at a dose of 13.15 mmol/kg. It counts as functional.
Test [22] deals with Cricetinae gen. sp. As to the kind of experiment: Activity against pregnancy-interceptive activity in Syrian golden hamsters, when administered, at a dose of 14.62 mmol/kg. It is filed as functional.
Test [23] has as its system Cricetinae gen. sp. As to the kind of experiment: Activity against pregnancy-interceptive activity in Syrian golden hamsters, when administered, at a dose of 15.20 mmol/kg. It is filed as functional.

For the compound `COC(=O)Nc1nc2cc(C3C(C(=O)OC)=C(C)N=C(C)/C3=C(/O)OC)ccc2[nH]1` (stereo not given), the inhibition in test [1] turned out to be 20%; in test [2] it was 16%; in [3], 5%; in [4] it was 5%; in test [5], 16%; in test [7] it was 28%. Moreover, the inhibition in test [8] amounted to 16%; in test [9], 10%; in test [10], 0%; in test [11], 15%. This compound displayed an Activity in the test on Cricetinae gen. sp. [6] of 1.5.
Consider `COC(=O)C1=C(C)N=C(C)/C(=C(/O)OC)C1c1ccc(NCc2ccccc2)c([N+](=O)[O-])c1` (stereo not given), for which the inhibition worked out at 12% in [1]; 10% in test [2]; 10% in test [3]; 0% in [4]; 0% in [5]; 10% in [7]. Also, the inhibition was determined as 4% in test [8], 0% in [9], 0% in [10] and 6% in test [11]. Further, the Activity with Cricetinae gen. sp. [12] is on record as 2.5.
For the compound `CNc1ccc(C2C(C(=O)OC)=C(C)N=C(C)/C2=C(/O)OC)cc1[N+](=O)[O-]` (stereo not given), the inhibition amounted to 14% in [1]; 10% in test [2]; 8% in test [3]; 5% in test [4]; 10% in test [5]; 12% in test [7]. The inhibition was determined as 10% in test [8], 4% in test [9], 4% in test [10] and 13% in test [11]. The Activity in the test on Cricetinae gen. sp. [13] is 6.8.
`COC(=O)C1=C(C)N=C(C)/C(=C(\O)OC)C1c1ccc(NC(C)=O)cc1` (stereo not given): the inhibition in test [1] is 15%; in [2], 18%. For the same compound, the Activity in the test on Cricetinae gen. sp. [14] came to 0.66.
As to `COC(=O)C1=C(C)N=C(C)/C(=C(/O)OC)C1c1ccc2nc(-c3ccc(O)c(OC)c3)n(Cc3ccc(O)c(OC)c3)c2c1` (stereo not given), the inhibition in test [1] stood at 20%; in test [2], 15%; in [3], 8%; in [4], 5%; in test [5] it was 15%; in test [7], 18%. Also, the inhibition in test [8] was determined as 12%; in test [9] it was 5%; in test [10] it was 3%; in test [11], 18%. The compound also yielded an Activity with Cricetinae gen. sp. [15] of 1.2.
Regarding `COC(=O)C1=C(C)N=C(C)/C(=C(/O)OC)C1c1ccc2[nH]c(S)nc2c1` (stereo not given), the inhibition stood at 20% in test [1]; 18% in test [2]; 10% in test [3]; 0% in test [4]; 15% in test [5]; 30% in [7]. In addition, the inhibition in [8] was 18%; in [9] it was 10%; in test [10] it was 9%; in test [11], 26%. Besides, the Activity in the test with Cricetinae gen. sp. [16] amounted to 5.
With `COC(=O)C1=C(C)N=C(C)/C(=C(/O)OC)C1c1cc2ccccc2n2nnnc12` (stereo not given), the inhibition in [1] worked out at 14%; in test [2] it was 8%; in test [3], 10%; in [4] it was 0%; in test [5] it was 12%; in [7], 10%. Also, the inhibition stood at 10% in test [8], 8% in [9], 0% in test [10] and 9% in test [11]. In the test with Cricetinae gen. sp. [17], the Activity is 2.5.
With `COC(=O)C1=C(C)N=C(C)/C(=C(/O)OC)C1c1ccc2nc3n(c2c1)C(=O)c1ccccc1-3` (stereo not given), the inhibition amounted to 15% in test [1]; 15% in test [2]; 0% in test [3]; 0% in test [4]; 0% in [5]; 16% in [7]. Also, the inhibition is 8% in [8], 9% in [9], 6% in test [10] and 10% in test [11]. This compound came in with an Activity in the test on Cricetinae gen. sp. [18] of 3.8.
As to `COC(=O)C1=C(C)N=C(C)/C(=C(/O)OC)C1c1ccc2nc(-c3ccccc3)c(-c3ccccc3)nc2c1` (stereo not given), the inhibition was determined as 16% in [1]; 18% in [2]; 2% in test [3]; 2% in test [4]; 10% in test [5]; 18% in test [7]. For the same compound, the inhibition in test [8] was found to be 12%; in test [9], 9%; in [10] it was 6%; in test [11], 15%. In the test with Cricetinae gen. sp. [19], this compound registered an Activity of 4.6.
With `COC(=O)C1=C(C)N=C(C)/C(=C(/O)OC)C1c1ccc2nc(-c3ccc(OC)cc3)n(Cc3ccc(OC)cc3)c2c1` (stereo not given), the inhibition came out at 20% in [1]; 16% in test [2]; 6% in test [3]; 2% in [4]; 10% in test [5]; 24% in test [7]. Moreover, the inhibition in test [8] was 15%; in [9], 12%; in [10] it was 10%; in [11] it was 20%. The same compound had an Activity in the test with Cricetinae gen. sp. [20] of 6.
As for `COC(=O)C1=C(C)N=C(C)/C(=C(/O)OC)C1c1ccc(Cl)c([N+](=O)[O-])c1` (stereo not given), the inhibition is 18% in [1]; 10% in test [2]; 0% in test [3]; 0% in [4]; 5% in test [5]; 24% in test [7]. For the same compound, the inhibition in test [8] was found to be 10%; in [9], 5%; in test [10], 2%; in test [11], 14%. The compound further showed an Activity with Cricetinae gen. sp. [21] of 2.6.
With `COC(=O)C1=C(C)N=C(C)/C(=C(/O)OC)C1c1ccc2[nH]nnc2c1` (stereo not given), the inhibition was found to be 22% in test [1]; 20% in [2]; 8% in test [3]; 10% in [4]; 12% in test [5]; 26% in test [7]. Further, the inhibition in [8] is 16%; in [9], 12%; in [10], 9%; in test [11] it was 18%. The compound further gave an Activity in the test on Cricetinae gen. sp. [22] of 5.2.
`COC(=O)C1=C(C)N=C(C)/C(=C(/O)OC)C1c1ccc(C=O)cc1` (stereo not given): the inhibition in test [1] is 15%; in test [2] it was 10%; in test [3], 4%; in [4], 3%; in test [5] it was 8%; in test [7], 12%. For the same compound, the inhibition amounted to 5% in test [8], 9% in [9], 0% in test [10] and 10% in test [11]. The Activity in the test with Cricetinae gen. sp. [23] is on record as 5.15.
